Laboratory results published in patent publication EP0041491B1, “New para-substituted 3-phenoxy-1-alkylamino-propanol-2-s having beta receptor blocking properties” (priority 1980, dated 1981).

Legend:
[1] = test system: vascular beta-adrenoceptors; assay: Experiment B: blockade of isoprenaline induced vasodilatation, i.v. infusion of test compound; format: in vivo; conditions: i.v. infusion 12 minutes per dose, isoprenaline bolus 10 minutes after start, reserpine pretreated cats
Protocol: (§1) A bilateral vagotomy was performed in the neck. […] The perfusion pressure (PP) was recorded.
(§2) An isoprenaline bolus dose which gave a heart rate response which was about 80% of the maximal response was then tested out. Usually this dose of isoprenaline was 0.4 µmol/kg.
(§3) The test compound was then infused intravenously in increasing doses. Each dose was given during 12 minutes with an interval of 18 minutes between doses.
(§4) The control dose of isoprenaline was injected 10 minutes after start of each infusion of the test compound. The dose of the test compound was increased logarithmically until total blockade of the isoprenaline responses was achieved.
(§5) The inhibitory effect of each dose of the test compound was expressed as per cent blockade according to the formula: [formula]
(§6) Per cent blockade was then plotted against log dose of the blocker and the ED:50-value was interpolated (cf. above). The ED:50 for heart rate blockade and ED:50 for blockade of the vaso- dilatation could then be compared and the selectivity for the compound estimated. Intrinsic sympa- thomimetic activity was evaluated as the maximal heart rate elevation during infusion of the test compound.

[2] = test system: vascular beta-adrenoceptors; assay: Experiment A: blockade of isoprenaline induced vasodilatation (hind leg perfusion pressure), i.v. bolus of test compound; format: in vivo; conditions: i.v. bolus injection during isoprenaline infusion, reserpine pretreated cats
Protocol: A bilateral vagotomy was performed in the neck. […] The perfusion pressure (PP) was recorded. […]
(§7) Per cent blockade (for each dose) was then plotted against log dose of the test compound. The ED:50 value (i.e. the dose which produced half maximal blockade) was interpolated.

in vivo = conditions: cat, iv
Protocol: (§8) All compounds were thereby tested in two different experimental models but with the same species, premedication and preparation. Cats (males and females weighing 2.5-3.5 kg) were pretreated with reserpine (5 mg/kg bodyweight administered intraperitoneally) about 16 hours before the experiments. The animals were pretreated with reserpine in order to eliminate the endogenous sympathetic control of heart rate and vascular smooth muscle tone. The cats were anaesthetized with pentobarbital (30 mg/kg bodyweight administered i.p.) and artificially ventilated with room air. A bilateral vagotomy was performed in the neck. Blood pressure was obtained from a cannulated carotid artery and heart rate was recorded from a cardiotachometer, triggered by the oscillations in blood pressure. The femoral artery of one hind leg was cannulated in both directions. Blood taken from the proximal part was pumped, at a constant flowrate, back into the distal part of the artery by means of a roller pump (Watson-Marlow). The perfusion pressure (PP) was recorded. Changes in PP indicated changes in the peripheral vascular resistance of the leg.
(§9) The maximal heart rate and vasodilator responses to isoprenaline were established by injecting a high i.v. bolus dose of isoprenaline (2.0 µmol/kg). An isoprenaline infusion rate was then established which gave a heart rate response (at steady state) which was about 80% of the maximal heart rate response to isoprenaline. Usually this dose of isoprenaline was 0.25 µmol/kg x min. The vasodilator response to this dose of isoprenaline was also approximately 80% of maximal. The isoprenaline dose was then infused during periods of 20 minutes with an interval of 20 minutes between the infusion periods.
(§10) The test compound was administered as an intravenous bolus injection seven minutes after start of each isoprenaline infusion. The dose of the test compound was increased until total blockade of the isoprenaline responses was achieved.
(§11) The plasma half life was estimated by the method of Levy (Nagashima, R., O'Reilly, R. A. and Levy, G., Clin. Pharmacol. Ther., 10 (1969) 22). The time from the peak inhibitory effect of each dose until 50% recovery was determined and plotted against log dose of the compound. The slope of the line obtained was calculated with linear regression. The slope equals 2.303/KE where Ke is the rate constant for elimination. The plasma half life (t 1/2) was then calculated according to the relation t 1/2 = 0.693/KE.

[3] = test system: cardiac beta-adrenoceptors; assay: Experiment B: blockade of isoprenaline induced heart rate response, i.v. infusion of test compound; format: in vivo; conditions: i.v. infusion 12 minutes per dose, isoprenaline bolus 10 minutes after start, reserpine pretreated cats
Protocol: as §1, §2, §3, §4, §5, §6

[4] = test system: cardiac beta-adrenoceptors; assay: Experiment A: blockade of isoprenaline induced heart rate response, i.v. bolus of test compound, reserpinized anaesthetized cat; format: in vivo; conditions: i.v. bolus injection during isoprenaline infusion, reserpine pretreated, pentobarbital anaesthetized, vagotomized cats
Protocol: as §1
For each dose of the test compound the peak reduction of the isoprenaline heart rate response was expressed as per cent blockade according to the formula: [formula]
as §7

[5] = Experiment A: plasma half life estimated by the method of Levy from time to 50% recovery of the blockade; conditions: cat, iv
Protocol: as §8, §9, §10, §11

## COC(=O)CCc1ccc(OCC(O)CNC(C)C)cc1 (centres unmarked) [Ex. 1, methyl 3-[4-(2-hydroxy-3.-isopropylaminopropoxy)phenyl]propanoate]
[1]
  Blockade of isoprenaline induced effects Vasodilatation ED:50: >25.6 µmol/kg/min
[2]
  Blockade of isoprenaline induced effects Vasodilatation ED:50: ~32.0 µmol/kg
In vivo
  half-life: 1 min
[3]
  Blockade of isoprenaline induced effects Heart rate ED:50: 3.6 µmol/kg/min
[4]
  Blockade of isoprenaline induced effects Heart rate ED:50: 2.3 µmol/kg

## CCOC(=O)CCc1ccc(OCC(O)CNC(C)C)cc1 (centres unmarked) [Ex. 2, Ethyl 3-[4-(2-hydroxy-3-isopropylaminopropoxy)-phenyl]propanoate]
[1]
  Blockade of isoprenaline induced effects Vasodilatation ED:50: 12.0 µmol/kg/min
[2]
  Blockade of isoprenaline induced effects Vasodilatation ED:50: >51.2 µmol/kg
[3]
  Blockade of isoprenaline induced effects Heart rate ED:50: 2.1 µmol/kg/min
[5]
  half-life: 1 min
[4]
  Blockade of isoprenaline induced effects Heart rate ED:50: 4.7 µmol/kg

## COCCOC(=O)CCc1ccc(OCC(O)CNC(C)C)cc1 (centres unmarked) [Ex. 3, 2-Methoxyethyl 3-[4-(2-hydroxy-3-isopropylaminopropoxy)phenyl]propanoate]
[1]
  Blockade of isoprenaline induced effects Vasodilatation ED:50: >25.6 µmol/kg/min
[2]
  Blockade of isoprenaline induced effects Vasodilatation ED:50: ~30.0 µmol/kg
[3]
  Blockade of isoprenaline induced effects Heart rate ED:50: 1.3 µmol/kg/min
[5]
  half-life: 1.5 min
[4]
  Blockade of isoprenaline induced effects Heart rate ED:50: 26.0 µmol/kg

## COCCOC(=O)CCCc1ccc(OCC(O)CNC(C)C)cc1 (centres unmarked) [Ex. 4, 2-Methoxyethyl 4-[4-(2-hydroxy-3-isopropylaminopropoxy)phenyl]butanoate]
[1]
  Blockade of isoprenaline induced effects Vasodilatation ED:50: 2.3 µmol/kg/min
[2]
  Blockade of isoprenaline induced effects Vasodilatation ED:50: 51.8 µmol/kg
[3]
  Blockade of isoprenaline induced effects Heart rate ED:50: 1.1 µmol/kg/min
[5]
  half-life: 1.7 min
[4]
  Blockade of isoprenaline induced effects Heart rate ED:50: 3.0 µmol/kg

## CCCOC(=O)CCc1ccc(OCC(O)CNC(C)C)cc1 (centres unmarked) [Ex. 5, Propyl 3-[4-(2-hydroxy-3-isopropylaminopropoxy)phenyl]propanoate]
[1]
  Blockade of isoprenaline induced effects Vasodilatation ED:50: >25.6 µmol/kg/min
[2]
  Blockade of isoprenaline induced effects Vasodilatation ED:50: >51.2 µmol/kg
[3]
  Blockade of isoprenaline induced effects Heart rate ED:50: 9.0 µmol/kg/min
[5]
  half-life: 0.3 min
[4]
  Blockade of isoprenaline induced effects Heart rate ED:50: ~20.0 µmol/kg

## CC(C)NCC(O)COc1ccc(CCC(=O)OC(C)C)cc1 (centres unmarked) [Ex. 6, Isopropyl 3-[4-(2-hydroxy-3-isopropylaminopropoxy)phenyl]propanoate]
[1]
  Blockade of isoprenaline induced effects Vasodilatation ED:50: >6.4 µmol/kg/min
[2]
  Blockade of isoprenaline induced effects Vasodilatation ED:50: >12.8 µmol/kg
[3]
  Blockade of isoprenaline induced effects Heart rate ED:50: 0.9 µmol/kg/min
[5]
  half-life: 3.5 min
[4]
  Blockade of isoprenaline induced effects Heart rate ED:50: 1.7 µmol/kg

## CCOC(=O)CCCc1ccc(OCC(O)CNC(C)C)cc1 (centres unmarked) [Ex. 7, Ethyl 4-[4-(2-hydroxy-3-isopropylaminopropoxy)phenyl]butanoate]
[1]
  Blockade of isoprenaline induced effects Vasodilatation ED:50: >6.4 µmol/kg/min
[2]
  Blockade of isoprenaline induced effects Vasodilatation ED:50: >51.0 µmol/kg
[3]
  Blockade of isoprenaline induced effects Heart rate ED:50: 1.5 µmol/kg/min
[5]
  half-life: 3.3 min
[4]
  Blockade of isoprenaline induced effects Heart rate ED:50: 1.8 µmol/kg

## CCOC(=O)CCCc1ccc(OCC(O)CNC(C)C)c(Br)c1 (centres unmarked) [Ex. 8, Ethyl 4-[3-bromo-4-(2-hydroxy-3-isopropylaminopropoxy)phenyl]butanoate]
[1]
  Blockade of isoprenaline induced effects Vasodilatation ED:50: >6.4 µmol/kg/min
[2]
  Blockade of isoprenaline induced effects Vasodilatation ED:50: >17.0 µmol/kg
[3]
  Blockade of isoprenaline induced effects Heart rate ED:50: 1.2 µmol/kg/min
[5]
  half-life: ~8 min
[4]
  Blockade of isoprenaline induced effects Heart rate ED:50: 2.1 µmol/kg

## COC(=O)CCc1ccc(OCC(O)CNC(C)C)c(OC)c1 (centres unmarked) [Ex. 15, methyl 3-[4-(2-hydroxy-3-isopropylaminopropoxy)-3-methoxyphenyl]propanoate]
[1]
  Blockade of isoprenaline induced effects Vasodilatation ED:50: 18.0 µmol/kg/min
[2]
  Blockade of isoprenaline induced effects Vasodilatation ED:50: ~20.0 µmol/kg
[3]
  Blockade of isoprenaline induced effects Heart rate ED:50: 1.9 µmol/kg/min
[5]
  half-life: 1 min
[4]
  Blockade of isoprenaline induced effects Heart rate ED:50: 0.9 µmol/kg

## CCOC(=O)CCc1ccc(OCC(O)CNC(C)C)c(Br)c1 (centres unmarked) [Ex. 20, ethyl 3-[3-bromo-4-(2-hydroxy-3-isopropylaminopropoxy)phenyl]propanoate]
[1]
  Blockade of isoprenaline induced effects Vasodilatation ED:50: >6.4 µmol/kg/min
[2]
  Blockade of isoprenaline induced effects Vasodilatation ED:50: >12.8 µmol/kg
[3]
  Blockade of isoprenaline induced effects Heart rate ED:50: 1.2 µmol/kg/min
[5]
  half-life: 2.2 min
[4]
  Blockade of isoprenaline induced effects Heart rate ED:50: 0.45 µmol/kg

## CCOC(=O)CCc1ccc(OCC(O)CNC(C)C)c(OC)c1 (centres unmarked) [Ex. 21, ethyl 3-[4-(2-hydroxy-3-isopropylaminopropoxy)-3-methoxyphenyl]propanoate]
[1]
  Blockade of isoprenaline induced effects Vasodilatation ED:50: >6.4 µmol/kg/min
[2]
  Blockade of isoprenaline induced effects Vasodilatation ED:50: >52 µmol/kg
[3]
  Blockade of isoprenaline induced effects Heart rate ED:50: 2.05 µmol/kg/min
[5]
  half-life: 0.9 min
[4]
  Blockade of isoprenaline induced effects Heart rate ED:50: 0.8 µmol/kg

## CCOC(=O)CCc1ccc(OCC(O)CNC(C)C)c(OCC)c1 (centres unmarked) [Ex. 22, ethyl 3-[3-ethoxy-4-(2-hydroxy-3-isopropylaminopropoxy)phenyl]propanoate]
[1]
  Blockade of isoprenaline induced effects Vasodilatation ED:50: 0.8 µmol/kg/min
[2]
  Blockade of isoprenaline induced effects Vasodilatation ED:50: >52 µmol/kg
[3]
  Blockade of isoprenaline induced effects Heart rate ED:50: 0.6 µmol/kg/min
[5]
  half-life: 0.9 min
[4]
  Blockade of isoprenaline induced effects Heart rate ED:50: 2.0 µmol/kg

## CCOC(=O)CCc1ccc(OCC(O)CNC(C)C)c(Cl)c1 (centres unmarked) [Ex. 23, ethyl 3-[3-chloro-4-(2-hydroxy-3-isopropylaminopropoxy)phenyl]propanoate]
[2]
  Blockade of isoprenaline induced effects Vasodilatation ED:50: >52 µmol/kg
[5]
  half-life: 1.8 min
[4]
  Blockade of isoprenaline induced effects Heart rate ED:50: 1.8 µmol/kg

## COc1cc(CCC(=O)OC(C)C)ccc1OCC(O)CNC(C)C (centres unmarked) [Ex. 24, isopropyl 3-[4-(2-hydroxy-3-isopropylaminopropoxy)-3-methoxyphenyl]propanoate]
[2]
  Blockade of isoprenaline induced effects Vasodilatation ED:50: >12.8 µmol/kg
[5]
  half-life: 2.1 min
[4]
  Blockade of isoprenaline induced effects Heart rate ED:50: 1.2 µmol/kg

## CCOC(=O)CCc1ccc(OCC(O)CNC(C)C)c(F)c1 (centres unmarked) [Ex. 25, ethyl 3-[3-fluoro-4-(2-hydroxy-3-isopropylaminopropoxy)phenyl]propanoate]
[1]
  Blockade of isoprenaline induced effects Vasodilatation ED:50: >6.4 µmol/kg/min
[2]
  Blockade of isoprenaline induced effects Vasodilatation ED:50: >12.8 µmol/kg
[3]
  Blockade of isoprenaline induced effects Heart rate ED:50: 2.1 µmol/kg/min
[5]
  half-life: 0.9 min
[4]
  Blockade of isoprenaline induced effects Heart rate ED:50: 0.6 µmol/kg
